{"source": "patent US20160030407A1", "about": "“Method of Treating Inflammatory Lung Disease” (priority 2010, published 2016)", "key": {"[1]": {"experiment": "Treatment of a patient with Hashimoto's thyroiditis", "format": "in vivo, human", "details": "one patient", "text": "This example illustrates administering anatabine for treating thyroiditis. A patient had been afflicted with Hashimoto's thyroiditis for approximately 5 years. The patient's condition had advanced to a state where the treating physician recommended a thyroid lobectomy."}, "[2]": {"molecular_target": "T1, nAChR α7 (Homo sapiens, UniProt P36544)", "T1 construct": "host or cells: CHO cells coexpressing RIC-3", "T1 sequence (P36544 23-502)": "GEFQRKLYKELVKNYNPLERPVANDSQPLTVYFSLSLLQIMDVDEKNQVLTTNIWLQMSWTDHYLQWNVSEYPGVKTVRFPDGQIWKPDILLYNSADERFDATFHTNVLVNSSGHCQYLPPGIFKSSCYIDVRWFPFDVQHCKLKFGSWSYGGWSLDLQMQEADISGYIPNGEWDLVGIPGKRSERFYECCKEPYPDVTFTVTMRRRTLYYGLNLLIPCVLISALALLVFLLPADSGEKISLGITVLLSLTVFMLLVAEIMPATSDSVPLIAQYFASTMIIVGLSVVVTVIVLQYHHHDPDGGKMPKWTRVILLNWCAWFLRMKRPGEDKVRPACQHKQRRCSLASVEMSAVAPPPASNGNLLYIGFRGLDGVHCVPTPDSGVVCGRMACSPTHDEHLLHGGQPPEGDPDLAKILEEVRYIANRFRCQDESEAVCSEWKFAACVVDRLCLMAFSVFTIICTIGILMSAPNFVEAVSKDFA", "experiment": "nAChR α7 channel antagonist assay (FLIPR)", "format": "cell-based", "details": "with 300 μM Ach+10 μM PNU-120596, control antagonist 10 μM MLA", "protocol": "(§1) Briefly, cells were incubated with […] dye for 30 min at 37° C."}, "[3]": {"molecular_target": "T1, nAChR α7", "experiment": "nAChR α7 channel agonist assay (FLIPR)", "format": "cell-based", "details": "in presence of PNU-120596, 100% = 30 μM Ach+10 μM PNU-120596, 0% = HBPS", "protocol": "as §1\nTherefore, the assay of agonist activity for either Ach or for the test articles was conducted in the presence of the positive allosteric modulator."}, "[4]": {"molecular_target": "T2, nAChR α4/β2 (Homo sapiens, UniProt P17787+P43681)", "T2 construct": "host or cells: HEK293 cells, transient", "T2 sequence (P43681 29-627)": "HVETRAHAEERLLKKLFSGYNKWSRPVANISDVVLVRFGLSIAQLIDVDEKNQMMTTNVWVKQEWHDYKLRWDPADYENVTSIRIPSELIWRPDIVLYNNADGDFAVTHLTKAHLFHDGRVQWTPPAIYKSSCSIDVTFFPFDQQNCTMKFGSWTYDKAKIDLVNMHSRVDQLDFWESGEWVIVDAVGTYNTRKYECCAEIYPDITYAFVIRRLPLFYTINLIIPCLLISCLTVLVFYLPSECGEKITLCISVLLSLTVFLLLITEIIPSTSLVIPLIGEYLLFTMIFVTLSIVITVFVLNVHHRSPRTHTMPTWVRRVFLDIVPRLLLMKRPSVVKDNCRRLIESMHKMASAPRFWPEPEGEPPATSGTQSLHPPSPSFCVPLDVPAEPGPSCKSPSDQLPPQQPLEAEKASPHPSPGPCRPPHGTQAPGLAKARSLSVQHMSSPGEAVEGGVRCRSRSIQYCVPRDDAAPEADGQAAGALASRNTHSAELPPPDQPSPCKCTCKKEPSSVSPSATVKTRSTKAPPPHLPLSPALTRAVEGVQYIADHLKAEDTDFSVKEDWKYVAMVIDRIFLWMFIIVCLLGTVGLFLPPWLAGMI", "T2 sequence (P17787 26-502)": "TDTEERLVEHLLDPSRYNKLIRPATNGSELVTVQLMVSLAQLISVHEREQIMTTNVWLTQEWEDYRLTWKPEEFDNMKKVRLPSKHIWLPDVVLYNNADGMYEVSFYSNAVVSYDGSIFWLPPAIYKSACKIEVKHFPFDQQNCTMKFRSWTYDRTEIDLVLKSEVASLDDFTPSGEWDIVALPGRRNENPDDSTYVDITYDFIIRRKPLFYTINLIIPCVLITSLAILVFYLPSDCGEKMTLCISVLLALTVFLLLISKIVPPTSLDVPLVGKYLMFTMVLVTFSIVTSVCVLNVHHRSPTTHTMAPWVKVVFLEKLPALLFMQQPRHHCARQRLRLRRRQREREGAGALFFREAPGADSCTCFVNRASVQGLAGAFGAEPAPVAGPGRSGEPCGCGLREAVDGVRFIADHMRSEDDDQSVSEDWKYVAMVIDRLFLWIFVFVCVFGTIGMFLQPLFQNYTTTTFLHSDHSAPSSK", "experiment": "nAChR α4/β2 channel agonist assay (FLIPR)", "format": "cell-based", "details": "test conc 0.3 μM; 100% = 30 μM Ach, 0% = HBPS", "protocol": "as §1"}, "[5]": {"molecular_target": "T1, nAChR α7", "experiment": "nAChR α7 channel positive allosteric modulator assay (FLIPR)", "format": "cell-based", "details": "with 30 μM Ach, 100% = 30 μM Ach+10 μM PNU-120596, 0% = 30 μM Ach", "protocol": "as §1"}, "[6]": {"molecular_target": "nAChR α3/β4 (Homo sapiens, UniProt P30926+P32297)", "sequence (P32297 32-505)": "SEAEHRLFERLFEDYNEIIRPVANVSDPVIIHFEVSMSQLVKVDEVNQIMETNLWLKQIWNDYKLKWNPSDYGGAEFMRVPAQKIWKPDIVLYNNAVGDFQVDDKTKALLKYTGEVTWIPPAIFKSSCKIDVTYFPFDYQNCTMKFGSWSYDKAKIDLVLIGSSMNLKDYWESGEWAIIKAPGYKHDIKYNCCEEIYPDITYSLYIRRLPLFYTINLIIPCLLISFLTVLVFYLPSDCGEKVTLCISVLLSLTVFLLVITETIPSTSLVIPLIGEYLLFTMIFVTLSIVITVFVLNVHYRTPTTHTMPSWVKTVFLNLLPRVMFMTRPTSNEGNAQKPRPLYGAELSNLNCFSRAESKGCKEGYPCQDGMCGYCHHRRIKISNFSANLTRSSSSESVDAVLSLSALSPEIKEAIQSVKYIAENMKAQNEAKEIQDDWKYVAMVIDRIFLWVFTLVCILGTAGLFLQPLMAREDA", "sequence (P30926 22-498)": "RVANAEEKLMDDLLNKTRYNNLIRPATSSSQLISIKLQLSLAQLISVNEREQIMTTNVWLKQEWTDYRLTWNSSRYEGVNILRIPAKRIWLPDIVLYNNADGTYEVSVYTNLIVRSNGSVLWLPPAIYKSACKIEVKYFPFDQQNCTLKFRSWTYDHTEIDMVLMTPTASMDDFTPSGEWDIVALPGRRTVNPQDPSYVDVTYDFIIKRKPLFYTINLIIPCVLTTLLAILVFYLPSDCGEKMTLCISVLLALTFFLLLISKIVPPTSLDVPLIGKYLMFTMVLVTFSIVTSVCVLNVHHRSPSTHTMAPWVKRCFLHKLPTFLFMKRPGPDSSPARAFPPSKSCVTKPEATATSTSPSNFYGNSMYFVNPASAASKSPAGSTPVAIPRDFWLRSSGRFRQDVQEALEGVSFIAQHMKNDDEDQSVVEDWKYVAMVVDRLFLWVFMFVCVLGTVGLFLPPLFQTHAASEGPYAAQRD", "experiment": "nAChR α3/β4 channel agonist assay (FLIPR)", "format": "cell-based", "details": "test conc 1 μM; 100% = 30 μM Ach, 0% = HBPS", "protocol": "as §1"}, "[7]": {"tested_on": "NFκB", "experiment": "NFκB luciferase assay (inhibition of TNFα-induced NFκB activity)", "format": "cell-based, Human", "details": "Homo sapiens; 20 ng/ml TNFα; HEK293 NFκB luciferase", "protocol": "The smokeless tobacco used in these experiments was plain long-leaf Copenhagen tobacco purchased from a local vendor. Crude extract was extracted with methanol and water and clarified by centrifugation and filtration. The alkaloid extract was prepared from sodium hydroxide and methanol extraction, organic phase separation and purification. All treatment samples were prepared as a function of weight (μg/ml), and all samples were diluted in DMSO.\nHuman […] kidney cells (HEK293) transfected with an NFκB luciferase reporter were challenged with TNFα for three hours, then samples were applied to the challenged cells.\nThe effect of S-(−)-anatabine on TNFα-induced NFκB activity in vitro was determined as described in Example 1."}, "[8]": {"experiment": "Physical signs after oral multi-dose administration (Example 5)", "format": "in vivo, Sprague-Dawley rats", "details": "rat; oral gavage 0.6 or 6.0 mg/kg BW in three divided doses", "text": "The physical signs of each animal were monitored following administration of the test compound."}, "[9]": {"experiment": "Plasma pharmacokinetics after oral multi-dose anatabine polacrilex", "format": "in vivo, Sprague-Dawley rats", "details": "for t1/2, terminal / AUC0→∞: rat; for t1/2, terminal: after the final dose; for AUC0→∞: males and females combined", "protocol": "This study consisted of two groups of 8 animals each, 4 males and 4 females.\nThe vehicle was sterile phosphate buffered saline (PBS) (Amresco). […] Two formulations were prepared; one for each of the two treatment groups. The test compound was formulated for each treatment group just prior to the first dose administration and constantly stirred until dosing was completed (Table 37). Four aliquots of each dose level formulation were collected and stored at −80° C.\nThe animals were weighed prior to dosing and received three doses p.o. of test compound at a volume of 5 mL/kg. Blood was collected via the venus plexus (retro-orbital) into tubes containing (K2) EDTA. No more than 0.5 mL was collected per time point.\nSample preparation. Plasma samples were treated with three volumes of methanol containing internal standard at 1 μM (R,S)-Antabine-2,4,5,6-d4), incubated 10 min at 4° C., and centrifuged. The amount of the test agent in the supernatant was determined by LC/MS/MS.\nAnalysis. Samples were analyzed by LC/MS/MS using an Agilent 6410 mass spectrometer coupled with an Agilent 1200 high pressure liquid chromatography (HPLC) and a CTC PAL chilled autosampler, all controlled by MassHunter software (Agilent). After separation on a Hydrophilic interaction liquid chromatography (HILIC) HPLC column (Sepax) using an acetonitrile-ammonium acetate/acetic acid gradient system, peaks were analyzed by mass spectrometry (MS) using ESI ionization in multiple reaction monitoring (MRM) mode. MassHunter software was used to calculate the concentration of the test compounds in samples from the peak area using the appropriate calibration curves.\nDescriptive statistics were calculated for all pharmacokinetic parameters. Elimination half-lives (t1/2) were calculated by linear regression of logarithmically transformed plasma concentration data for each period between doses and following the final dose.\nTotal areas under the plasma concentration curves (AUC) and under the first moment curves (AUMC) were calculated using linear trapezoidal summation across all concentration time points as well as for intervals between each dose administration and following the final dose. […] Mean absorption times (MAT) were calculated according to the following relation: […]"}, "[10]": {"tested_on": "IL-1β", "experiment": "LPS-induced IL-1β release in whole human blood", "format": "cell-based", "details": "whole human blood + LPS; 16 hours (Example 13)", "protocol": "Whole human blood was treated with LPS to stimulate inflammatory responses. […] The inflammatory molecule IL-1β was measured after 16 hours."}}, "data": [{"molecule": "anatabine citrate", "values": [{"measurement": "inflammation of the thyroid", "setting": "[1]; about 600 μg tablets 20 times daily, 30 days", "value": "reduced to normal levels"}, {"measurement": "voice distortion associated with thyroiditis", "setting": "[1]; after an additional 30 days", "value": "no longer present"}]}, {"molecule": "C1=CCC(c2cccnc2)NC1", "note": "(racemic) [Anatabine (racemate)]", "values": [{"measurement": "Normalized % Inhibition", "setting": "[2]; test conc 0.3 μm", "value": 22.38, "unit": "%"}, {"measurement": "Normalized % Inhibition", "setting": "[2]; test conc 1 μm", "value": 22.23, "unit": "%"}, {"measurement": "Normalized % Inhibition", "setting": "[2]; test conc 3 μm", "value": 45.19, "unit": "%"}, {"measurement": "Normalized % Inhibition", "setting": "[2]; test conc 10 μm", "value": 33.42, "unit": "%"}, {"measurement": "Normalized % Inhibition", "setting": "[2]; test conc 30 μm", "value": 22.88, "unit": "%"}, {"measurement": "Normalized % Inhibition", "setting": "[2]; test conc 100 μm", "value": 21.99, "unit": "%"}, {"measurement": "Normalized % Inhibition", "setting": "[2]; test conc 300 μm", "value": 7.51, "unit": "%"}, {"measurement": "Normalized % Inhibition", "setting": "[2]; test conc 1000 μm", "value": 10.84, "unit": "%"}, {"measurement": "Normalized % Activation", "setting": "[3]; test conc 1 μm", "value": 0.34, "unit": "%"}, {"measurement": "Normalized % Activation", "setting": "[3]; test conc 3 μm", "value": 0.78, "unit": "%"}, {"measurement": "Normalized % Activation", "setting": "[4]", "value": 0.28, "unit": "%"}, {"measurement": "Normalized % Potentiation", "setting": "[5]; test conc 0.3 μm", "value": "−0.94", "unit": "%"}, {"measurement": "Normalized % Potentiation", "setting": "[5]; test conc 3 μm", "value": "−0.82", "unit": "%"}, {"measurement": "Normalized % Potentiation", "setting": "[5]; test conc 10 μm", "value": "−0.51", "unit": "%"}, {"measurement": "Normalized % Potentiation", "setting": "[5]; test conc 30 μm", "value": "−0.57", "unit": "%"}, {"measurement": "Normalized % Potentiation", "setting": "[5]; test conc 100 μm", "value": "−0.64", "unit": "%"}, {"measurement": "Normalized % Potentiation", "setting": "[5]; test conc 300 μm", "value": "−0.74", "unit": "%"}, {"measurement": "Normalized % Activation", "setting": "[6]", "value": "−0.01", "unit": "%"}]}, {"molecule": "C1=CC[C@@H](c2cccnc2)NC1", "note": "[S-(−)-anatabine]", "values": [{"measurement": "IC50", "setting": "[7]", "value": "~330", "unit": "µg/mL"}]}, {"molecule": "anatabine polacrilex", "values": [{"measurement": "adverse signs", "setting": "[8]", "value": "no adverse signs were observed"}, {"measurement": "Cp, min(2)", "setting": "[9]; females, 6.0 mg/kg BW group", "value": "180 ± 31", "unit": "ng/mL"}, {"measurement": "Cp, min, first minimum", "setting": "[9]; females, 6.0 mg/kg BW group", "value": "51.5 ± 26.0", "unit": "ng/mL"}, {"measurement": "t1/2, terminal", "setting": "[9]; 0.6 mg/kg BW group", "value": "1.79 ± 0.64", "unit": "h"}, {"measurement": "AUC0→∞", "setting": "[9]; 0.6 mg/kg BW p.o. in three divided doses", "value": "285 ± 77", "unit": "ng·h/mL"}, {"measurement": "t1/2, terminal", "setting": "[9]; 6.0 mg/kg BW group", "value": "4.53 ± 1.77", "unit": "h"}, {"measurement": "AUC0→∞", "setting": "[9]; 6.0 mg/kg BW p.o. in three divided doses", "value": "3496 ± 559", "unit": "ng·h/mL"}]}, {"molecule": "CC(C)c1c(C(=O)Nc2ccccc2)c(-c2ccccc2)c(-c2ccc(F)cc2)n1CC[C@@H](O)C[C@@H](O)CC(=O)[O-].CC(C)c1c(C(=O)Nc2ccccc2)c(-c2ccccc2)c(-c2ccc(F)cc2)n1CC[C@@H](O)C[C@@H](O)CC(=O)[O-].[Ca+2]", "note": "[LIPITOR®, reference compound]", "values": [{"measurement": "accumulation of IL-1β", "setting": "[10]", "value": "had no effect at the dose shown"}]}]}
